Key:
MDA-MB-361.1 = assay: In Vitro Cell Proliferation Assay (CellTiter-Glo), MDA-MB-361.1; assay type: cell-based; settings: MDA-MB-361.1, Breast, mutation status PI3K
Protocol: (§1) The in vitro potency of Formula I exemplary compounds was measured by the cell proliferation assay, CellTiter-Glo® Luminescent Cell Viability Assay, commercially available from Promega Corp., Madison, Wis. (Example 33). This homogeneous assay method is based on the recombinant expression of Coleoptera luciferase (U.S. Pat. No. 5,583,024; U.S. Pat. No. 5,674,713; U.S. Pat. No. 5,700,670) and determines the number of viable cells in culture based on quantitation of the ATP present, an indicator of metabolically active cells (Crouch et al (1993) J. Immunol. Meth. 160:81-88; U.S. Pat. No. 6,602,677).
(§2) format, making it amenable to automated high-throughput screening (HTS) (Cree et al (1995) Anti Cancer Drugs 6:398-404). The homogeneous assay procedure involves adding the single reagent (CellTiter-Glo® Reagent) directly to cells cultured in serum-supplemented medium. Cell washing, removal of medium and multiple pipetting steps are not required. The system detects as few as 15 cells/well in a 384-well format in 10 minutes after adding reagent and mixing.
(§3) The homogeneous “add-mix-measure” format results in cell lysis and generation of a luminescent signal proportional to the amount of ATP present. The amount of ATP is directly proportional to the number of cells present in culture. The CellTiter-Glo® Assay generates a “glow-type” luminescent signal, produced by the luciferase reaction, which has a half-life generally greater than five hours, depending on cell type and medium used. Viable cells are reflected in relative luminescence units (RLU). The substrate, Beetle Luciferin, is oxidatively decarboxylated by recombinant firefly luciferase with concomitant conversion of ATP to AMP and generation of photons. The extended half-life eliminates the need to use reagent injectors and provides flexibility for continuous or batch mode processing of multiple plates. This cell proliferation assay an be used with various multiwell formats, e.g. 96 or 384 well format. Data can be recorded by luminometer or CCD camera imaging device. The luminescence output is presented as relative light units (RLU), measured over time.
(§4) Efficacy of Formula I compounds were measured by a cell proliferation assay employing the following protocol (Promega Corp. Technical Bulletin TB288; Mendoza et al (2002) Cancer Res. 62:5485-5488):
(§5) 1. An aliquot of 100 n1 of cell culture containing about 10^4 cells (PC3, Detroit562, or MDAMB361.1) in medium was deposited in each well of a 384-well, opaque-walled plate.
(§6) 2. Control wells were prepared containing medium and without cells.
(§7) 3. The compound was added to the experimental wells and incubated for 3-5 days.
(§8) 4. The plates were equilibrated to room temperature for approximately 30 minutes.
(§9) 5. A volume of CellTiter-Glo Reagent equal to the volume of cell culture medium present in each well was added.
(§10) 6. The contents were mixed for 2 minutes on an orbital shaker to induce cell lysis.
(§11) 7. The plate was incubated at room temperature for 10 minutes to stabilize the luminescence signal.
(§12) 8. Luminescence was recorded and reported in graphs as RLU=relative luminescence units.
(§13) Alternatively, cells were seeded at optimal density in a 96 well plate and incubated for 4 days in the presence of test compound. Alamar Blue™ was subsequently added to the assay medium, and cells were incubated for 6 h before reading at 544 nm excitation, 590 nm emission. EC50 values were calculated using a sigmoidal dose response curve fit.
(§14) The anti-proliferative effects of Formula I exemplary compounds were measured by the CellTiter-Glo® Assay against various tumor cell lines, including the following: […]

PC3 = assay: In Vitro Cell Proliferation Assay (CellTiter-Glo), PC3; assay type: cell-based; settings: Homo sapiens, PC-3; PC3, Prostate, mutation status PTEN
Protocol: as §1, §2, §3, §4, §5, §6, §7, §8, §9, §10, §11, §12, §13, §14

p110 alpha PI3K = target: T1, p110 alpha PI3K (Homo sapiens, UniProt P42336); assay: p110α (alpha) PI3K Binding Assay (fluorescence polarization; alternatively radiometric); assay type: biochemical; settings: tested for PI3K activity according to the methods of this invention
T1 construct: purchased Upstate Cell Signaling Solutions, Charlottesville, Va
T1 sequence (P42336 whole entry): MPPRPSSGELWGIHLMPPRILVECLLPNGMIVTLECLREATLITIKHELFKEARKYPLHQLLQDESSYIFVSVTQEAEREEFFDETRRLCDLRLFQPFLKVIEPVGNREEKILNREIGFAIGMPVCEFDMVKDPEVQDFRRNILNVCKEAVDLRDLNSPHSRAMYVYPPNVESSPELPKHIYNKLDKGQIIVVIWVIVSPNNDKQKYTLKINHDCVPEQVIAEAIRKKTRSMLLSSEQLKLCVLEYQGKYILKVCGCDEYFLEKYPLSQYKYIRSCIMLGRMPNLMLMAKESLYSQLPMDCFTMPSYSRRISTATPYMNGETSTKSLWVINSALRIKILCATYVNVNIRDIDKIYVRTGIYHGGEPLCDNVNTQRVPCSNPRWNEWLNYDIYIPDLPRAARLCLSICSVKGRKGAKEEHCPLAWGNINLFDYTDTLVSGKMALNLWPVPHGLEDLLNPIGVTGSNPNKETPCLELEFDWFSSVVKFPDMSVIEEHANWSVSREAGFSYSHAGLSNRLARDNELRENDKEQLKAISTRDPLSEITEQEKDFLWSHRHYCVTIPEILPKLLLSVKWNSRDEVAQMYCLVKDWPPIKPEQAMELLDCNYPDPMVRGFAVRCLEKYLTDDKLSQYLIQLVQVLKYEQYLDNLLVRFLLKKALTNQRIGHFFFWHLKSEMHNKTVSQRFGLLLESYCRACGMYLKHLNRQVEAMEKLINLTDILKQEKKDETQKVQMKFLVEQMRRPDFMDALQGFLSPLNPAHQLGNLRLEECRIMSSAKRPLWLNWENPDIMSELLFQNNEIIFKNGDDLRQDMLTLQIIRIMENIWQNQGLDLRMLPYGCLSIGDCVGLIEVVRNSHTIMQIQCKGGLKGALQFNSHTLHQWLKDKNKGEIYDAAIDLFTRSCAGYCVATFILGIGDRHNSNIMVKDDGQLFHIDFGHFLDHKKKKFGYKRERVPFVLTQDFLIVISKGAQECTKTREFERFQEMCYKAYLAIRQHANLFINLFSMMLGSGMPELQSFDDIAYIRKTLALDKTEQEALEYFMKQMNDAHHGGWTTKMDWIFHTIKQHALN
T1 sequence (P27986 whole entry partner): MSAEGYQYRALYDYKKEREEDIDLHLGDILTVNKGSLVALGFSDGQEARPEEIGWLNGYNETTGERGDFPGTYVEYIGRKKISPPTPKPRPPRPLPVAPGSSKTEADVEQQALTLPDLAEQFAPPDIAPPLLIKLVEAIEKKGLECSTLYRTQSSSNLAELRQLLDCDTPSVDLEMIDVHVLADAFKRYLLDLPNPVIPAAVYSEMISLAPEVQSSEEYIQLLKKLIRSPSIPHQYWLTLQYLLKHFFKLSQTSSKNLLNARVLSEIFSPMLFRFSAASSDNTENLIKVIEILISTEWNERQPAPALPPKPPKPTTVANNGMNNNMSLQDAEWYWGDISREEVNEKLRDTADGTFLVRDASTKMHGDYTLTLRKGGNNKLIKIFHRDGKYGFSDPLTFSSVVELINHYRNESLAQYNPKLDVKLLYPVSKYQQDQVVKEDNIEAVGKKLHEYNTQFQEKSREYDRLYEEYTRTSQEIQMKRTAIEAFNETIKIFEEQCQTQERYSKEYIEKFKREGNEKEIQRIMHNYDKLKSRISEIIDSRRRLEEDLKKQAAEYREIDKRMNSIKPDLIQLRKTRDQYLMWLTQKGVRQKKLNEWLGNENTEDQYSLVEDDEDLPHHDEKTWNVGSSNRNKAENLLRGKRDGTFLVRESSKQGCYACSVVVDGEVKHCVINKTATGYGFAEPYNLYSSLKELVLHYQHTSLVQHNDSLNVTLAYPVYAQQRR
Protocol: Binding Assays: Initial polarization experiments were performed on an Analyst HT 96-384 (Molecular Devices Corp, Sunnyvale, Calif.). Samples for fluorescence polarization affinity measurements were prepared by addition of 1:3 serial dilutions of p110 alpha PI3K (Upstate Cell Signaling Solutions, Charlottesville, Va.) starting at a final concentration of 20 ug/mL in polarization buffer (10 mM Tris pH 7.5, 50 mM NaCl, 4 mM MgCl2, 0.05% Chaps, and 1 mM DTT) to 10 mM PIP2 (Echelon-Inc., Salt Lake City, Utah.) final concentration. After an incubation time of 30 minutes at room temperature, the reactions were stopped by the addition of GRP-1 and PIP3-TAMRA probe (Echelon-Inc., Salt Lake City, Utah.) 100 nM and 5 nM final concentrations respectively. […] This experiment also establishes the appropriate protein concentration to use in subsequent competition experiments with inhibitors.
Inhibitor IC50 values were determined by addition of the 0.04 mg/mL p110 alpha PI3K (final concentration) combined with PIP2 (10 mM final concentration) to wells containing 1:3 serial dilutions of the antagonists in a final concentration of 25 mM ATP (Cell Signaling Technology, Inc., Danvers, Mass.) in the polarization buffer. After an incubation time of 30 minutes at room temperature, the reactions were stopped by the addition of GRP-1 and PIP3-TAMRA probe (Echelon-Inc., Salt Lake City, Utah.) 100 nM and 5 nM final concentrations respectively.
Alternatively, inhibition of PI3K was determined in a radiometric assay using purified, recombinant enzyme and ATP at a concentration of 1 uM. The Formula I compound was serially diluted in 100% DMSO. The kinase reaction was incubated for 1 h at room temperature, and the reaction was terminated by the addition of PBS. IC50 values were subsequently determined using sigmoidal dose-response curve fit (variable slope).

Compound	EC50 (MDA-MB-361.1)	EC50 (PC3)	IC50 (p110 alpha PI3K)
Cn1ncc2c(Oc3ccc(S(C)(=O)=O)cc3)cc(-c3cccc4[nH]ncc34)nc21 [Compound 101, 6-(1H-indazol-4-yl)-1-methyl-4-(4-(methylsulfonyl)phenoxy)-1H-pyrazolo[3,4-b]pyridine]	965 nM	881 nM	
Cn1ncc2c(Oc3ccc(S(C)(=O)=O)cc3)cc(-c3ccc4[nH]ncc4c3)nc21 [Compound 102, 6-(1H-indazol-5-yl)-1-methyl-4-(4-(methylsulfonyl)phenoxy)-1H-pyrazolo[3,4-b]pyridine]			224 nM
CCCNc1cc(-c2cccc3[nH]ncc23)nc2c1cnn2C [Compound 103, 6-(1H-indazol-4-yl)-1-methyl-N-propyl-1H-pyrazolo[3,4-b]pyridin-4-amine]			82.8 nM
Cn1ncc2c(Nc3ccc(S(C)(=O)=O)cc3)cc(-c3cccc4[nH]ncc34)nc21 [Compound 104, 6-(1H-indazol-4-yl)-1-methyl-N-(4-(methylsulfonyl)phenyl)-1H-pyrazolo[3,4-b]pyridin-4-amine]	475 nM	2000 nM	2.23 nM
Cn1ncc2c(Oc3ccc(S(C)(=O)=O)cc3)cc(-c3cccc4c(N)n[nH]c34)nc21 [Compound 105, 7-(1-methyl-4-(4-(methylsulfonyl)phenoxy)-1H-pyrazolo[3,4-b]pyridin-6-yl)-1H-indazol-3-amine]			13.7 nM
Cc1cccc(C)c1Oc1cc(-c2cccc3[nH]ncc23)nc2c1cnn2C [Compound 106, 4-(2,6-dimethylphenoxy)-6-(1H-indazol-4-yl)-1-methyl-1H-pyrazolo[3,4-b]pyridine]			399 nM
COc1cccc(Oc2cc(-c3cccc4[nH]ncc34)nc3c2cnn3C)c1 [Compound 107, 6-(1H-indazol-4-yl)-4-(3-methoxyphenoxy)-1-methyl-1H-pyrazolo[3,4-b]pyridine]			53 nM
COc1ccc(Oc2cc(-c3cccc4[nH]ncc34)nc3c2cnn3C)cc1OC [Compound 108, 4-(3,4-dimethoxyphenoxy)-6-(1H-indazol-4-yl)-1-methyl-1H-pyrazolo[3,4-b]pyridine]			16 nM
CNC(=O)c1cccc(-c2cc(-c3cccc4[nH]ncc34)nc3c2cnn3C)c1 [Compound 111, 3-(6-(1H-indazol-4-yl)-1-methyl-1H-pyrazolo[3,4-b]pyridine-4-yl)-N-methylbenzamide]	1000 nM	2400 nM	
Cn1ncc2c(-c3cccc(NS(C)(=O)=O)c3)cc(-c3cccc4[nH]ncc34)nc21 [Compound 113, N-(3-(6-(1H-indazol-4-yl)-1-methyl-1H-pyrazolo[3,4-b]pyridin-4-yl)phenyl)methanesulfonamide]	749 nM	561 nM	
Cn1ncc2c(-c3ccc(S(C)(=O)=O)cc3)cc(-c3cccc4[nH]ncc34)nc21 [Compound 115, 6-(1H-indazol-4-yl)-1-methyl-4-(4-(methylsulfonyl)phenyl)-1H-pyrazolo[3,4-b]pyridine]	346 nM	750 nM	
COc1ccc(-c2cc(Oc3ccc(S(C)(=O)=O)cc3)c3cnn(C)c3n2)cn1 [Compound 117, 6-(6-methoxypyridin-3-yl)-1-methyl-4-(4-(methylsulfonyl)phenoxy)-1H-pyrazolo[3,4-b]pyridine]			47.5 nM
COc1cc(-c2cc(Oc3ccc(S(C)(=O)=O)cc3)c3cnn(C)c3n2)ccn1 [Compound 118, 6-(2-methoxypyridin-4-yl)-1-methyl-4-(4-(methylsulfonyl)phenoxy)-1H-pyrazolo[3,4-b]pyridine]	2400 nM	4900 nM	
Cn1ncc2c(Oc3ccc(S(C)(=O)=O)cc3)cc(-c3ccnc(O)c3)nc21 [Compound 120, 4-(1-methyl-4-(4-(methylsulfonyl)phenoxy)-1H-pyrazolo[3,4-b]pyridin-6-yl)pyridin-2-ol]			575 nM
Cn1ncc2c(Oc3ccc(S(C)(=O)=O)cc3)cc(-c3cccc4c(N)noc34)nc21 [Compound 121, 7-(1-methyl-4-(4-(methylsulfonyl)phenoxy)-1H-pyrazolo[3,4-b]pyridin-6-yl)benzo[d]isoxazol-3-amine]			153 nM

Reference: patent US8653098B2, “Pyrazolopyridine PI3K inhibitor compounds and methods of use” (Genentech, Inc., priority 2008, dated 2014)
